Data from patent publication US7491819B1 (priority 2004, dated 2009).

target: T1, HIV-integrase (Human immunodeficiency virus type 1 group M subtype B, UniProt P12497); test: HIV-Integrase Inhibition Activity (SPA bead strand-transfer assay); format: biochemical; settings: Table 1; read-out: Activity (HIV-integrase inhibition, IC50 class)
T1 construct: Recombinant integrase (0.26 ng) was incubated with the beads
Protocol: HIV-Integrase Inhibition Activity. To evaluate in-vitro activity against HIV-integrase, 5 pmole of biotin labeled substrate DNA was bound to 100 μg of Streptavidin coated PVT SPA beads (Amersham Pharmacia Biotech). Recombinant integrase (0.26 ng) was incubated with the beads for 90 min at 37° C. Unbound enzyme was removed by washing the complex followed by addition of inhibitors and 0.1 fmol of P33 labeled target DNA. The reaction was stopped by adding EDTA to a final concentration of 10 mM. Samples were counted in TopCountNXT (Packard) and the CPM was used as a measure of integration. The reaction condition was as described in A. Engelman and R. Craigie, J. Virol 69, 5908-5911 (1995). The sequences of substrate and target DNA were described in Nucleic Acid Research 22, 1121-1122 (1994).

SMILES	IC50 [nM]
CC1(C)OCCn2c1nc(C(=O)NCc1ccc(F)cc1C(=O)NC1CC1)c(O)c2=O [Example 50, Pyrimido[2,1-c][1,4]oxazine-2-carboxamide, N-[[2-[(cyclopropylamino)carbonyl]-4-fluorophenyl]methyl]-4,6,7,9-tetrahydro-3-hydroxy-9,9-dimethyl-4-oxo-]	2 to 100
CC1(C)OCCn2c1nc(C(=O)NCc1ccccc1-c1cccc(C#N)c1)c(O)c2=O [Example 167, Pyrimido[2,1-c][1,4]oxazine-2-carboxamide, N-[(3′-cyano[1,1′-biphenyl]-2-yl)methyl]-4,6,7,9-tetrahydro-3-hydroxy-9,9-dimethyl-4-oxo-]	2 to 100
CC1(C)OCCn2c1nc(C(=O)NCc1ccccc1-c1cccc(C(N)=O)c1)c(O)c2=O [Example 174, Pyrimido[2,1-c][1,4]oxazine-2-carboxamide, N-[[3′-(aminocarbonyl)[1,1′-biphenyl]-2-yl]methyl]-4,6,7,9-tetrahydro-3-hydroxy-9,9-dimethyl-4-oxo-]	2 to 100
CC1(C)OCCn2c1nc(C(=O)NCc1ccccc1N)c(O)c2=O [Example 255, Pyrimido[2,1-c][1,4]oxazine-2-carboxamide, N-[(2-aminophenyl)methyl]-4,6,7,9-tetrahydro-3-hydroxy-9,9-dimethyl-4-oxo-]	2 to 100
CC1(C)OCCn2c1nc(C(=O)NCc1cccc(Cl)c1Cl)c(O)c2=O [Example 227, Pyrimido[2,1-c][1,4]oxazine-2-carboxamide, N-[(2,3-dichlorophenyl)methyl]-4,6,7,9-tetrahydro-3-hydroxy-9,9-dimethyl-4-oxo-]	2 to 100
CC1(C)OCCn2c1nc(C(=O)NCc1ccc(F)cc1F)c(O)c2=O [Example 35, Pyrimido[2,1-c][1,4]oxazine-2-carboxamide, N-[(2,4-difluorophenyl)methyl]-4,6,7,9-tetrahydro-3-hydroxy-9,9-dimethyl-4-oxo-]	2 to 100
CC1(C)OCCn2c1nc(C(=O)NCc1ccc(F)c(F)c1)c(O)c2=O [Example 33, Pyrimido[2,1-c][1,4]oxazine-2-carboxamide, N-[(3,4-difluorophenyl)methyl]-4,6,7,9-tetrahydro-3-hydroxy-9,9-dimethyl-4-oxo-]	2 to 100
CCC1OCCn2c1nc(C(=O)NCc1ccc(C)c(C)c1)c(O)c2=O (centres unmarked) [Example 13, Pyrimido[2,1-c][1,4]oxazine-2-carboxamide, N-[(3,4-dimethylphenyl)methyl]-9-ethyl-4,6,7,9-tetrahydro-3-hydroxy-4-oxo-]	2 to 100
CC1(C)OCCn2c1nc(C(=O)NCc1ccccc1-c1cccc3ncccc13)c(O)c2=O [Example 197, Pyrimido[2,1-c][1,4]oxazine-2-carboxamide, 4,6,7,9-tetrahydro-3-hydroxy-9,9-dimethyl-4-oxo-N-[[2-(5-quinolinyl)phenyl]methyl]-]	2 to 100
COC(=O)c1cc(F)ccc1CNC(=O)c1nc2n(c(=O)c1O)CCOC2(C)C [Example 47, Benzoic acid, 5-fluoro-2-[[[(4,6,7,9-tetrahydro-3-hydroxy-9,9-dimethyl-4-oxopyrimido[2,1-c][1,4]oxazin-2-yl)carbonyl]amino]methyl]-, methyl ester]	2 to 100
CC1(C)OCCn2c1nc(C(=O)NCc1ccccc1N1CCOC1=O)c(O)c2=O [Example 122, Pyrimido[2,1-c][1,4]oxazine-2-carboxamide, 4,6,7,9-tetrahydro-3-hydroxy-9,9-dimethyl-4-oxo-N-[[2-(2-oxo-3-oxazolidinyl)phenyl]methyl]-]	2 to 100
CC1(C)OCCn2c1nc(C(=O)NCc1ccccc1-c1cccnc1)c(O)c2=O [Example 150, Pyrimido[2,1-c][1,4]oxazine-2-carboxamide, 4,6,7,9-tetrahydro-3-hydroxy-9,9-dimethyl-4-oxo-N-[[2-(3-pyridinyl)phenyl]methyl]-]	2 to 100
CC1(C)OCCn2c1nc(C(=O)NCc1ccc(F)cc1N1CCC1=O)c(O)c2=O [Example 126, N-(4-Fluoro-2-(2-oxoazetidin-1-yl)benzyl)-3-hydroxy-9,9-dimethyl-4-oxo-4,6,7,9-tetrahydropyrimido[2,1-c][1,4]oxazine-2-carboxamide]	2 to 100
COCc1ccc(-c2ccccc2CNC(=O)c2nc3n(c(=O)c2O)CCOC3(C)C)cc1 [Example 181, Pyrimido[2,1-c][1,4]oxazine-2-carboxamide, 4,6,7,9-tetrahydro-3-hydroxy-N-[[4′-(methoxymethyl)[1,1′-biphenyl]-2-yl]methyl]-9,9-dimethyl-4-oxo-]	2 to 100
CS(=O)(=O)CCC1OCCn2c1nc(C(=O)NCc1ccc(F)cc1)c(O)c2=O (centres unmarked) [Example 209, Pyrimido[2,1-c][1,4]oxazine-2-carboxamide, N-[(4-fluorophenyl)methyl]-4,6,7,9-tetrahydro-3-hydroxy-9-[2-(methylsulfonyl)ethyl]-4-oxo-]	2 to 100
CC(=O)N1CCN(C(=O)c2ncn(-c3cc(F)ccc3CNC(=O)c3nc4n(c(=O)c3O)CCOC4(C)C)n2)CC1 [Example 66, Pyrimido[2,1-c][1,4]oxazine-2-carboxamide, N-[[2-[3-[(4-acetyl-1-piperazinyl)carbonyl]-1H-1,2,4-triazol-1-yl]-4-fluorophenyl]methyl]-4,6,7,9-tetrahydro-3-hydroxy-9,9-dimethyl-4-oxo-]	2 to 100
CCOP(=O)(O)c1cc(F)ccc1CNC(=O)c1nc2n(c(=O)c1O)CCOC2(C)C [Example 282, Phosphonic acid, [5-fluoro-2-[[[(4,6,7,9-tetrahydro-3-hydroxy-9,9-dimethyl-4-oxopyrimido[2,1-c][1,4]oxazin-2-yl)carbonyl]amino]methyl]phenyl]-, monoethyl ester]	2 to 100
CC1(C)OCCn2c1nc(C(=O)NCc1ccccc1-c1cccc3cccnc13)c(O)c2=O [Example 148, Pyrimido[2,1-c][1,4]oxazine-2-carboxamide, 4,6,7,9-tetrahydro-3-hydroxy-9,9-dimethyl-4-oxo-N-[[2-(8-quinolinyl)phenyl]methyl]-]	100 to 1000
CC1(C)OCCn2c1nc(C(=O)NCc1cc(F)cc(C(F)(F)F)c1)c(O)c2=O [Example 237, Pyrimido[2,1-c][1,4]oxazine-2-carboxamide, N-[[3-fluoro-5-(trifluoromethyl)phenyl]methyl]-4,6,7,9-tetrahydro-3-hydroxy-9,9-dimethyl-4-oxo-]	2 to 100
CCc1cc(CNC(=O)c2nc3n(c(=O)c2O)CCOC3(C)C)ccc1F [Example 247, Pyrimido[2,1-c][1,4]oxazine-2-carboxamide, N-[(3-ethyl-4-fluorophenyl)methyl]-4,6,7,9-tetrahydro-3-hydroxy-9,9-dimethyl-4-oxo-]	2 to 100
CC1(C)OCCn2c1nc(C(=O)NCc1ccc(F)cc1-n1cnc(C(=O)NS(C)(=O)=O)n1)c(O)c2=O [Example 64, Pyrimido[2,1-c][1,4]oxazine-2-carboxamide, N-[[4-fluoro-2-[3-[[(methylsulfonyl)amino]carbonyl]-1H-1,2,4-triazol-1-yl]phenyl]methyl]-4,6,7,9-tetrahydro-3-hydroxy-9,9-dimethyl-4-oxo-]	2 to 100
CC1(C)OCCn2c1nc(C(=O)NCc1ccc(F)cc1N)c(O)c2=O [Example 134, Pyrimido[2,1-c][1,4]oxazine-2-carboxamide, N-[(2-amino-4-fluorophenyl)methyl]-4,6,7,9-tetrahydro-3-hydroxy-9,9-dimethyl-4-oxo-]	2 to 100
CC1(C)OCCn2c1nc(C(=O)NCc1ccc(O)cc1)c(O)c2=O [Example 259, Pyrimido[2,1-c][1,4]oxazine-2-carboxamide, 4,6,7,9-tetrahydro-3-hydroxy-N-[(4-hydroxyphenyl)methyl]-9,9-dimethyl-4-oxo-]	2 to 100
CC1(C)OCCn2c1nc(C(=O)NCc1ccc(C#N)cc1)c(O)c2=O [Example 265, Pyrimido[2,1-c][1,4]oxazine-2-carboxamide, N-[(4-cyanophenyl)methyl]-4,6,7,9-tetrahydro-3-hydroxy-9,9-dimethyl-4-oxo-]	2 to 100
CC1(C)OCCn2c1nc(C(=O)NCc1ccc(F)c3ccccc13)c(O)c2=O [Example 40, Pyrimido[2,1-c][1,4]oxazine-2-carboxamide, N-[(4-fluoro-1-naphthalenyl)methyl]-4,6,7,9-tetrahydro-3-hydroxy-9,9-dimethyl-4-oxo-]	2 to 100
Cn1nnc(-c2cc(F)ccc2CNC(=O)c2nc3n(c(=O)c2O)CCOC3(C)C)n1 [Example 106, Pyrimido[2,1-c][1,4]oxazine-2-carboxamide, N-[[4-fluoro-2-(2-methyl-2H-tetrazol-5-yl)phenyl]methyl]-4,6,7,9-tetrahydro-3-hydroxy-9,9-dimethyl-4-oxo-]	2 to 100
Cc1cnc(-c2cc(F)ccc2CNC(=O)c2nc3n(c(=O)c2O)CCOC3(C)C)o1 [Example 86, Pyrimido[2,1-c][1,4]oxazine-2-carboxamide, N-[[4-fluoro-2-(5-methyl-2-oxazolyl)phenyl]methyl]-4,6,7,9-tetrahydro-3-hydroxy-9,9-dimethyl-4-oxo-]	2 to 100
CC1(C)OCCn2c1nc(C(=O)NCc1ccccc1-c1cccc(C(=O)N3CCCC3)c1)c(O)c2=O [Example 172, Pyrimido[2,1-c][1,4]oxazine-2-carboxamide, 4,6,7,9-tetrahydro-3-hydroxy-9,9-dimethyl-4-oxo-N-[[3′-(1-pyrrolidinylcarbonyl)[1,1′-biphenyl]-2-yl]methyl]-]	2 to 100
Cc1c(Cl)cccc1CNC(=O)c1nc2n(c(=O)c1O)CCOC2(C)C [Example 236, Pyrimido[2,1-c][1,4]oxazine-2-carboxamide, N-[(3-chloro-2-methylphenyl)methyl]-4,6,7,9-tetrahydro-3-hydroxy-9,9-dimethyl-4-oxo-]	2 to 100
